{
  "source": "paper PMC12377202",
  "about": "“Design, synthesis, and cytotoxic evaluation of quinazoline-based derivatives as VEGER-2 inhibitors: comparative study against EGFR kinase activity, induction of apoptosis, and molecular docking study” (RSC Advances, 2025)",
  "assay_type_in_all_cases": "cell-based, human",
  "key": {"[1]": {"tested_on": "MCF-7", "test": "MTT anti-proliferative assay, MCF-7", "conditions": "Homo sapiens"}, "[2]": {"tested_on": "HepG-2", "test": "MTT anti-proliferative assay, HepG-2", "conditions": "Homo sapiens"}, "[3]": {"tested_on": "K-562", "test": "MTT anti-proliferative assay, K-562", "conditions": "Homo sapiens, K562"}, "[4]": {"test": "MTT cytotoxicity against normal cells", "conditions": "human, HEK-293 cells (normal human embryonic kidney)"}, "[5]": {"tested_on": "HEK-293", "test": "MTT cytotoxicity against normal cells"}},
  "data": [
    {"smiles": "CNC(=O)c1cc(Oc2ccc(NC(=O)Nc3ccc(Cl)c(C(F)(F)F)c3)cc2)ccn1", "note": "[Sorafenib, sorafenib, reference compound]", "values": [
      {"measurement": "IC50", "setting": "[1]; MCF7, MTT, MCF-7, read-out: Cytotoxicity against cancer cells IC50 MCF-7", "value": "128 ± 3.1", "unit": "nM"},
      {"measurement": "viability at 78 µM", "setting": "[1]; MCF7, 0.078 umol/ml", "value": 71.5, "unit": "%"},
      {"measurement": "cytotoxicity at 78 µM", "setting": "[1]; MCF7, 0.078 umol/ml, read-out: Toxicity %", "value": 28.5, "unit": "%"},
      {"measurement": "viability", "setting": "[1]; MCF7, 0.313 umol/ml", "value": 25.7, "unit": "%"},
      {"measurement": "cytotoxicity at 0.313 µM", "setting": "[1]; MCF7, 0.313 umol/ml, read-out: Toxicity %", "value": 74.3, "unit": "%"},
      {"measurement": "viability", "setting": "[1]; MCF7, 0.625 umol/ml", "value": 16.1, "unit": "%"},
      {"measurement": "cytotoxicity at 2500 µM", "setting": "[1]; MCF7, 2.5 umol/ml, read-out: Toxicity %", "value": 89.1, "unit": "%"},
      {"measurement": "cytotoxicity at 10000 µM", "setting": "[1]; MCF7, 10 umol/ml, read-out: Toxicity %", "value": 91.8, "unit": "%"},
      {"measurement": "viability at 78 µM", "setting": "[2]; HepG2, 0.078 umol/ml", "value": 51.7, "unit": "%"},
      {"measurement": "cytotoxicity at 0.078 µM", "setting": "[2]; HepG2, 0.078 umol/ml, read-out: Toxicity %", "value": 48.3, "unit": "%"},
      {"measurement": "viability at 0.313 µM", "setting": "[2]; HepG2, 0.313 umol/ml", "value": 16.5, "unit": "%"},
      {"measurement": "viability at 0.625 µM", "setting": "[2]; HepG2, 0.625 umol/ml", "value": 11.1, "unit": "%"},
      {"measurement": "cytotoxicity at 2500 µM", "setting": "[2]; HepG2, 2.5 umol/ml, read-out: Toxicity %", "value": 92.1, "unit": "%"},
      {"measurement": "cytotoxicity at 10000 µM", "setting": "[2]; HepG2, 10 umol/ml, read-out: Toxicity %", "value": 93.1, "unit": "%"},
      {"measurement": "viability at 78 µM", "setting": "[3]; K-562, 0.078 umol/ml", "value": 38.9, "unit": "%"},
      {"measurement": "cytotoxicity at 78 µM", "setting": "[3]; K-562, 0.078 umol/ml, read-out: Toxicity %", "value": 61.1, "unit": "%"},
      {"measurement": "viability at 0.313 µM", "setting": "[3]; K-562, 0.313 umol/ml", "value": 12.3, "unit": "%"},
      {"measurement": "viability at 0.625 µM", "setting": "[3]; K-562, 0.625 umol/ml", "value": 9.18, "unit": "%"},
      {"measurement": "cytotoxicity at 2500 µM", "setting": "[3]; K-562, 2.5 umol/ml, read-out: Toxicity %", "value": 92.1, "unit": "%"},
      {"measurement": "cytotoxicity at 10000 µM", "setting": "[3]; K-562, 10 umol/ml, read-out: Toxicity %", "value": 92.9, "unit": "%"},
      {"measurement": "IC50", "setting": "[3]; MTT, K-562, read-out: Cytotoxicity against cancer cells IC50 K-562", "value": "60.6 ± 2.6", "unit": "nM"},
      {"measurement": "viability at 3 days, 0.078 umol/ml", "setting": "[4]; HEK-293, 0.078 umol/ml", "value": 69.4, "unit": "%"},
      {"measurement": "viability at 3 days, 0.156 umol/ml", "setting": "[4]; HEK-293, 0.156 umol/ml", "value": 40.8, "unit": "%"},
      {"measurement": "viability at 3 days, 0.313 umol/ml", "setting": "[4]; HEK-293, 0.313 umol/ml", "value": 30.9, "unit": "%"},
      {"measurement": "viability at 3 days, 0.625 umol/ml", "setting": "[4]; HEK-293, 0.625 umol/ml", "value": 17.6, "unit": "%"},
      {"measurement": "viability at 3 days, 1.25 umol/ml", "setting": "[4]; HEK-293, 1.25 umol/ml", "value": 13.1, "unit": "%"},
      {"measurement": "viability at 3 days, 2.5 umol/ml", "setting": "[4]; HEK-293, 2.5 umol/ml", "value": 10.3, "unit": "%"},
      {"measurement": "viability at 3 days, 10 umol/ml", "setting": "[4]; HEK-293, 10 umol/ml", "value": 6.3, "unit": "%"},
      {"measurement": "viability at 3 days, 50 umol/ml", "setting": "[4]; HEK-293, 50 umol/ml", "value": 8.64, "unit": "%"},
      {"measurement": "Toxicity %", "setting": "[5]; HEK-293, 0.078 umol/ml", "value": 30.65, "unit": "%"},
      {"measurement": "Toxicity %", "setting": "[5]; HEK-293, 0.156 umol/ml", "value": 59.15, "unit": "%"},
      {"measurement": "Toxicity %", "setting": "[5]; HEK-293, 0.313 umol/ml", "value": 69.11, "unit": "%"},
      {"measurement": "Toxicity %", "setting": "[5]; HEK-293, 0.625 umol/ml", "value": 82.43, "unit": "%"},
      {"measurement": "Toxicity %", "setting": "[5]; HEK-293, 1.25 umol/ml", "value": 86.92, "unit": "%"},
      {"measurement": "Toxicity %", "setting": "[5]; HEK-293, 2.5 umol/ml", "value": 89.65, "unit": "%"},
      {"measurement": "Toxicity %", "setting": "[5]; HEK-293, 10 umol/ml", "value": 93.7, "unit": "%"},
      {"measurement": "Toxicity %", "setting": "[5]; HEK-293, 50 umol/ml", "value": 91.36, "unit": "%"},
      {"measurement": "IC50", "setting": "[5]; Homo sapiens, HEK293, raw data, HEK-293", "value": 131000, "unit": "nM"}
    ]}
  ]
}
